Measured values taken from US11147748B2, “Composition of temporary crown materials” (National Taipei University of Technology, priority 2019, dated 2021).
“Also recorded” adds a separate entry of the source. Structures can show the parent of a compound that is named as a salt.

How the values were obtained:
fibroblasts (L929) = experiment: cytotoxicity test (MTT) with extract of the cured temporary crown material; assay type: cell-based; conditions: L929 co-cultured with material extract (0.2 g/ml) for 24 hours and 72 hours; plasticizer in crown material; FIG. 3
Method: First, 2 grams (g) of the mixture of the powder reagent and the liquid reagent were taken to be cured and then immersed in 10 ml of MEM culture medium at a temperature of 37° C. for 24 hours. Afterwards, an extract of the mixture was taken, in which the extraction ratio was 0.2 g/ml.
Further, fibroblasts (L929) were seeded in the 96-well plates and incubated for 1 day.
Afterwards, the cell culture media were removed, and then a material extract containing 10% fetal bovine serum (FBS) after filtration and a culture medium without the material extract as the control were added, respectively, and then incubated for 24-72 hours. Subsequently, the culture media were removed again, and then phosphate buffered saline (PBS) washes were performed, followed by PBS removal. The serum-free culture medium was formulated as a reaction reagent of MTT ((3-(4,5-dimethylthiazol-2-yl)-2,5-diphenyltetrazolium bromide)), and the ratio of the culture medium to the MTT solution was 1 mg/ml. Each well plate was added with 50 μl of MTT reagent and then placed in the incubator. After 2 hours, the MTT reagent was removed, and 100 μl of antifreezing agent (DMSO) was added. The 96-well plate was shaken for 30 minutes using a rotary shaker. After the reaction was completed, the absorbance at a wavelength of 570 nm was measured by an ELISA reader. […]

[1] = three-point bending test (flexural strength, toughness) of the temporary crown material; assay type: physicochemical; conditions: for toughness (in words): FIG. 5
Method: First, the temporary crown material was filled into a stainless steel mold (a length of 25 millimeters (mm), a width of 2 mm and a height of 2 mm). After the temporary crown was completely cured, the crown was immersed in ultrapure water and placed in an oven at 37° C. for 24 hours. […] The flexural strength was calculated by the following formula: […]
wherein F was the force (N) under the maximum load; b was the average width (mm) of the test piece; h was the average thickness (mm) of the test piece; and l was the pitch (mm) between the two lower fulcrums.
In addition, the toughness of the temporary crown is the integral area under the stress-strain curve, in which stress is put on Y-axis and strain is put on X-axis. The unit of the toughness is […]

[2] = surface hardness test of temporary crowns (micro hardness tester); assay type: physicochemical; conditions: plasticizer added to temporary crown; load 4.903 N for 10 seconds; FIG. 6
Method: First, the temporary crown material was filled into a stainless steel mold (a diameter of 15 mm and a thickness of 1 mm). After the temporary crown was completely cured, the sample was immersed in ultrapure water and placed in an oven at 37° C. After 24 hours, the sample to be tested was taken out and placed in a micro hardness tester (HMV-2 series), and the load applied to the sample by the diamond indenter was 4.903 N for 10 seconds. Finally, the average length of the diagonal indentation on the surface of the sample was measured to calculate the surface hardness of the temporary crown. The calculation formula was: […]
wherein d is the length of the indentation, F is the load, and g is the gravity constant.

[3] = plasticizer added to temporary crown
[4] = temporary crown with 2% plasticizer
[5] = temporary crown with 5% plasticizer
[6] = temporary crown with 10% plasticizer
[7] = temporary crown with 15% plasticizer

Row | Compound | Elongation at break [1, 4] | Flexural modulus [1, 4] | Maximum stress [1, 4] | Strain [1, 4] | Toughness [1, 4] | Elongation at break [1, 5] | Flexural modulus [1, 5] | Maximum stress [1, 5] | Strain [1, 5] | Toughness [1, 5] | Elongation at break [1, 6] | Flexural modulus [1, 6] | Maximum stress [1, 6] | Strain [1, 6] | Toughness [1, 6] | Elongation at break [1, 7] | Flexural modulus [1, 7] | Maximum stress [1, 7] | Strain [1, 7] | Toughness [1, 7] | further results
1 | CCCCOC(=O)CC(CC(=O)OCCCC)(OC(C)=O)C(=O)OCCCC [ATBC, acetyl tributyl citrate] | 7.94% | 2463.34 MPa | 85.24 MPa | 7.72% | 59.89 MPa | 8.24% | 2362.61 MPa | 81.98 MPa | 7.82% | 57.21 MPa | 6.50% | 2138.92 MPa | 70.29 MPa | 6.48% | 28.07 MPa | 5.70% | 1897.78 MPa | 55.59 MPa | 5.71% | 17.39 MPa | cytotoxicity / cell survival rate (fibroblasts (L929)): less than that of adding plasticizers DBP and TEC; also recorded: less toxicity to cells; flexural strength (in words) ([1]; plasticizer added to temporary crown, FIG. 4): can increase the flexural strength; toughness (in words) [1, 3]: can increase the toughness
2 | CCCCOC(=O)c1ccccc1C(=O)OCCCC [DBP, dibutyl phthalate, reference compound] | 10.86% | 1215.08 MPa | 66.56 MPa | 10.75% | 28.74 MPa | 11.43% | 1199.73 MPa | 62.75 MPa | 10.75% | 31.14 MPa | 9.56% | 1083.70 MPa | 54.11 MPa | 9.75% | 18.94 MPa | 9.68% | 997.11 MPa | 46.25 MPa | 9.50% | 17.35 MPa | surface hardness (in words) [2]: contributes to the increase of surface hardness
3 | CCOC(=O)CC(O)(CC(=O)OCC)C(=O)OCC [TEC, triethyl citrate] | 10.43% | 2173.29 MPa | 80.70 MPa | 8.94% | 77.26 MPa | 13.14% | 2308.16 MPa | 83.40 MPa | 9.20% | 115.80 MPa | 7.10% | 2029.32 MPa | 69.93 MPa | 7.09% | 30.88 MPa | 5.34% | 1790.09 MPa | 46.31 MPa | 5.36% | 11.98 MPa | cytotoxicity / cell survival rate (fibroblasts (L929)): not significantly improved; toughness (in words) [1, 3]: can increase the toughness
